“Also recorded” adds a separate entry of the source.
Columns and labels:
[1] = test system: isoleucine tRNA synthetase; details: approved antibiotic; Merck Manual; cited from earlier work
Myocytes = assay: Myocyte culture with phenylephrine (in vitro model of hypertrophy); format: cell-based, neonatal Wistar rats; details: 10 μM phenylephrine, grown two more days, serum free MEM
Method: (§1) Myocytes were prepared from 1 to 5 day old neonatal Wistar rats (University of Copenhagen) according to literature procedure described in Busk et al., 2002, Cardiovasc. Res., 56: 64-75 and plated into eight P10 culture plates at 6 million cells/plate. Cells were grown at 37° C. and 5% CO2 humidity in serum free Modified Eagle Media (MEM). After 2 days, the adherent cells were washed at room temperature with serum free MEM (2×) and fresh MEM was added. To four of the plates, 10 μM phenylephrine (PE) was also added. Cells were grown for two more days and then harvested as described below.
Using the procedures described above for Examples 1-5, the ligand Library 1 (containing unnatural amino acids) as described for Example 5, myocyte proteins prepared and labeled as described for Examples 9 and 11, screening as described for Example 15, sorting and identifying as described for Examples 18 to 21, digestion and protein identification as described for Examples 25-31, previously unknown, specific, differential ligand-protein binding pairs were identified for the normal (basal) myocyte protein mixtures and the phenylephrine (PE)-treated myocyte proteins screened against the ligands of Library 1. Phenylephrine was used to provide an in vitro model of hypertrophy, for example, cardiac hypertrophy (Arnott et al., 1998, Anal. Biochem., 1:1-18).

Phosphomannose isomerase = biological target: T1, Phosphomannose isomerase (Candida albicans, UniProt P34948); details: in Candida; Wells et al, 1996; cited from earlier work
T1 sequence (P34948 1-441): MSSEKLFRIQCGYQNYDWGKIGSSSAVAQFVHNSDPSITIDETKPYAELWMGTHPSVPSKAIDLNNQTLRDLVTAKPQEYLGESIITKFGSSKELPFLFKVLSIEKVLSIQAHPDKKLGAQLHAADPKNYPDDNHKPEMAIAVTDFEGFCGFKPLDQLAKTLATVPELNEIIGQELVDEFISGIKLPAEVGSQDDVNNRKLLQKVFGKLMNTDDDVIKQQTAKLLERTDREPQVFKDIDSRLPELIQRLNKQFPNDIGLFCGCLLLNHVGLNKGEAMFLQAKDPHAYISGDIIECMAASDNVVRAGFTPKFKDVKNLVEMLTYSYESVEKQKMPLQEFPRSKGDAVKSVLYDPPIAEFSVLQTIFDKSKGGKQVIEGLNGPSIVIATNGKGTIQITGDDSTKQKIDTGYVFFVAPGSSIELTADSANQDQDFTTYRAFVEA

[2] = test system: Phenylephrine Treated (Hyperthrophic) Myocytes protein mixture; assay: Solid phase screening of Library 1 with labeled myocyte proteins; on-bead affinity isolation and peptide mass fingerprinting of bound protein (PE-induced); format: binding, neonatal Wistar rats; details: proteins bound to resin-bound Library 1 ligand, primarily present in PE-treated hypertrophied cells; LA low abundance, M transmembrane or partially embedded, MA membrane associated
Method: as §1
(§2) Protein was extracted from myocytes prepared as described above for Example 9, using a new procedure modified from existing protocols, primarily: Arnott, et al., 1998, Anal. Biochem. 258: 1-18. The media was removed from plates and adhered cells were treated for 10 minutes with ice cold phosphate buffer (0.25 mL, 10 mM, pH 7.5, augmented with 0.15 M NaCl 60 mM Benzamidine HCl, 5 mM EDTA, 10 μg/mL E-64, 10 μg/mL Leupeptin, 10 μg/mL Pepstatin A, and 1 mM PMSF). The cells were scraped off the plates and then lysed (on ice) in a sonicator (2×) using 10 seconds off/10 seconds on cycles.
(§3) The resulting suspension was augmented with CHAPS, DTT, and urea to a final concentration of CHAPS (1% w/v), DTT (5 mM), and urea (8 M). After 10-15 minutes on ice, the solution was centrifuged for 10 minutes at 15,000 rpm at 4° C. The supernatant was removed and protein content quantified using the NanoOrange Protein test (Molecular Probes, Eugene, Oreg.): Total protein recovered: 70.5 μg for PE-treated cells and 60 μg for basal cells.
(§4) Fluorescent dye Oregon Green 514 (OR) (Molecular Probes) was used to label the healthy/basal cells while Rhodamine Red (RR) (Molecular Probes) was used to label the PE-treated cells. The labeling procedures were carried out according to the manufacturer's protocol. The protein solutions (0.25 mL, 50.4 μg for PE cells and 0.25 mL, 42.8 μg for basal cells) were dialyzed against a solution of 10 mM phosphate buffer, 0.15 M NaCl, pH 7.5 and then 1 M NaHCO3 (0.025 mL) added to a final pH of 8.5. 10 μL of dye in dry DMF (10 mg/mL) was added and the sample stirred at room temperature for 2 hours. The protein solution was dialyzed extensively against 10 mM phosphate buffer, 0.15 M NaCl, pH 7.5, to remove excess dye.
(§5) Ligand library 1 (200 mg), prepared as described for Example 5, was transferred to a syringe fitted with a stop-valve and the ligand-beads were washed for 10 minutes (3×) with 10 mM phosphate buffer, pH 6.8, supplemented with 0.15 M NaCl, 1 mM Ca^2+, 1 mM Zn^2+, 1 mM Mn^2+, 1 mM Cu^2+, and 1 mM Mg^2+ (3 mL). The ligand-beads were treated with a 1% BSA solution for 30 minutes, then washed with buffer (1×). A mixture of labeled myocyte proteins, including both PE-induced protein (138 μL, 40 μg) and basal protein (167 μL, 40 μg) obtained as described above for Example 11, was prepared in 1.2 mL buffer, and added to the ligand library in the syringe. The proteins and ligand library were incubated at room temperature for 16 hours. The library was then washed with buffer for 5 minutes then with water for 3×5 minutes. The library was examined under a fluorescence microscope and brightly fluorescent red, green, and yellow beads (yellow indicative of both dyes red and green binding; the majority of the beads) were present, as well as unlabelled beads. The fluorescent beads were parted and retained for analysis.
(§6) The fluorescent ligand library beads containing bound myocyte protein obtained as described in Example 15, were sorted using a COPAS (250) NF Bead Sorter (Union Biometrica, Somerville, Mass.). Beads emitting fluorescence of only one color contain proteins from one physical state, proteins expressed only in the PE-induced hypertrophic state (red) or proteins expressed only in the basal state (green).

[3] = test system: Normal Myocytes (basal) protein mixture; assay: Solid phase screening of Library 1 with labeled myocyte proteins; on-bead affinity isolation and peptide mass fingerprinting of bound protein (basal); format: binding, neonatal Wistar rats; details: proteins bound to resin-bound Library 1 ligand, primarily present in basal cells; LA low abundance, M transmembrane or partially embedded, MA membrane associated; parentheses = possible complexes
Method: as §1, §2, §3, §4, §5, §6

Compound | Identified Protein(s) [2] | Identified Protein(s) [3] | also measured
C/C(=C\C(=O)OCCCCCCCCC(=O)O)C[C@@H]1OC[C@H](C[C@@H]2O[C@H]2[C@@H](C)[C@H](C)O)[C@@H](O)[C@H]1O [Mupirocin] |  |  | enzyme inhibition [1]: inhibits
CNC[C@H](O)c1cccc(O)c1 [PE, phenylephrine] |  |  | cell size at time of harvest (Myocytes): significantly enlarged
Nc1ccc(S(=O)(=O)Nc2ncccn2)cc1 [sulfadiazene] |  |  | enzyme inhibition (Phosphomannose isomerase): inhibited
Abi-Phe-Abi-Phe-Che-Tyr | Cathepsin E; Ribosomal proteins, Actin binding protein, Amino acid; also recorded: transferase |  | 
Abi-Thr-Hyp-Hyp-His-?- | Phosphofructokinase; Selenium binding protein; (Serine arginine rich; also recorded: protein kinase (LA); Guanylate kinase (LA), Protein tyrosine kinase; also recorded: (LA)); Alkaline phosphatase; Symporter (M); SPTR (M); WAP-protein;; also recorded: GTP Hydrolase, Actin filament |  | 
Pal-Abi-Gly-Gly-Abi-His | Ribosomal protein (60s + 40s); Low density lipoprotein receptor |  | 
Phe-Abi-Pal-Hyp-Thr-Hyp | Zinc finger associated protein; Ribosomal proteins; Protein phosphatase and (LA) |  | 
Phe-Gua-Pal-Tyr-Gua-Tyr | Glucose-6-Phosphatase; Succinate dehydrogenase; ARL-interacting; also recorded: protein (M); SPTR (M), Nucleic acid binding protein |  | 
Phe-Thr-Pya-Pip-Asp-His |  | (Sodium channel (M); Chloride channel (M)) Troponin; Ribosomal; also recorded: proteins L26; Serine hydroxy methyl transferase; Zn Finger protein (MA);; also recorded: Adherin aminotransferase (M); (Gluthathione transferase; Gluthathione; also recorded: peroxidase;) | 
Pip-Pal-Pal-Phe-Pya-Pip |  | Myosin light chain kinase (LA, MA); (Tyrosine phosphatase (LA, M);; also recorded: ATP Synthase component (M)) Gluthathione S-transferase; Cytochrome; also recorded: P450 (M); Ribosomal proteins (60s); SPTR (M)) | 
Pya-Gua-Abi-Asp-Abi-Tyr | SPTR (M); Ribosomal proteins (60s); (Calcium channel (M); Slo channel; also recorded: protein isoform (M); Potassium conductance calcium activated channel; also recorded: (M); Symporter (M;) NADH dehydrogenase; Malate dehydrogenase; N-; also recorded: Acetyl transferase; Mitochondrial associated protein; G-protein receptor; also recorded: used for signaling (LA, M) |  | 
Pya-Gua-Pip-Acc-Phe-Pip |  | NADH dehydrogenase; ATP binding component (M); Myosin; Histone; also recorded: associated proteins (M) | 
Pya-Hyp-Hyp-Phe-Acm-Tyr |  | Troponin T; Growth hormone receptor (M); Protein kinase (LA) | 

Source: patent publication US20040142379A1, “Affinity fishing for ligands and proteins receptors” (Carlsberg Research Laboratory, priority 2003, published 2004)
